This assay deals with Ad5. Kind of assay: Ad5 genome replication assay (cell-based QPCR) in A549 cells. The conditions noted are these: Human adenovirus sp., A549, 72 h, read-out: Ad5 qPCR EC50 (μM). The method, then: Compounds of the present invention were tested for potency against Ad5 in an Ad5 genome replication assay, a cell-based QPCR assay of Ad5 genome replication in A549 cells, a human lung carcinoma cell line. Serotype of human Ad5, used in this replication assay can also replicate in a NZW rabbit model of adenoviral ocular keratitis.
EC50 values (μM) for inhibition of adenoviral replication were determined by QPCR. Briefly, 10,000 cultured A549 cells were inoculated with 25,000 pfu/well for 3 hrs in 2% FBS F12-K A549 culture media. Following inoculation, A549 cells were treated with log unit dilutions of compound of Formula I (˜10 μM thru˜10 pM) in 10% FBS F12-K culture media with 0.3% DMSO for an additional 3 days. Cell viability was assessed with Alamar Blue (10 μl/well for 2 hrs; fluorescence Ex353; Em595 nm). Plates were washed 3 times with 125 μl PBS, cell lysates were prepared for QPCR analysis using Cells to SNP kit (Life Technologies). Ad5 genome levels per cell were determined with RNaseP and Ad5 hexon Taqman Assays (Life Technologies). EC50, the concentration that inhibited Ad5 genome replication formation by 50%, was estimated from plots of Ad5 genomes/cell vs. compound concentration.

As to `CC(C)CC1c2[nH]c3ccc(Cl)cc3c2CCN1C(=O)CCc1ccccc1` (centres unmarked) [Compound 1], the EC50 lay in the range of 0.1 to 1 µM.
`CC(C)CC1c2[nH]c3ccc(Cl)cc3c2CCN1C(=O)CCN1CCOCC1` (centres unmarked) [Compound 2]: the EC50 is more than 1 µM.
Next, `CC(C)CC1c2[nH]c3ccc(Cl)cc3c2CCN1C(=O)CCN1CCCCC1` (centres unmarked) [Compound 3]: more than 1 µM; `Cc1ccc(C2c3[nH]c4ccc(Cl)cc4c3CCN2C(=O)CCN2CCC(F)(F)CC2)cc1` (centres unmarked) [Compound 4]: 0.1 to 1 µM; `O=C(CCN1CCC(F)(F)CC1)N1CCc2c([nH]c3ccc(Cl)cc23)C1c1ccc(F)cc1` (centres unmarked) [Compound 5]: more than 1 µM.
For `CC(C)CC1c2[nH]c3ccc(Cl)cc3c2CCN1C(=O)CN1CCC(F)(F)CC1` (centres unmarked) [Compound 7] the value was 0.1 to 1 µM; for `CC(C)CC1c2[nH]c3ccc(Cl)cc3c2CCN1C(=O)CN1CCC(C(F)(F)F)CC1` (centres unmarked) [Compound 8], 0.1 to 1 µM; for `O=C(CCN1CCC(F)(F)CC1)N1CCc2c([nH]c3ccc(Cl)cc23)C1CC1CCCC1` (centres unmarked) [Compound 9], 0.1 to 1 µM.
Next, `CC(C)(C)CC1c2[nH]c3ccc(Cl)cc3c2CCN1C(=O)CCN1CCC(F)(F)CC1` (centres unmarked) [Compound 10]: 0.1 to 1 µM; `CC(C)CC1c2[nH]c3ccc(Cl)cc3c2CCN1C(=O)CCN1CCC(F)(F)C1` (centres unmarked) [Compound 11]: 0.1 to 1 µM.
Take `CC(C)CC1c2[nH]c3ccc(Cl)cc3c2CCN1C(=O)CCCN1CCC(F)(F)CC1` (centres unmarked) [Compound 12]: the EC50 was more than 1 µM.
For `CC(C)CC1c2[nH]c3ccc(Cl)cc3c2CCN1C(=O)CCN1CCCC(F)(F)C1` (centres unmarked) [Compound 13] the value was 0.1 to 1 µM.
Take `CC(C)CC1c2[nH]c3ccc(Cl)cc3c2CCN1C(=O)OCCN1CCC(F)(F)CC1` (centres unmarked) [Compound 14]: the EC50 lay within 0.1 to 1 µM.
Next, `CC(C)CC1c2[nH]c3ccc(Cl)cc3c2CCN1C(=O)CCN1CCC(C)CC1` (centres unmarked) [Compound 15]: more than 1 µM; `CC(C)CC1c2[nH]c3ccc(Cl)cc3c2CCN1C(=O)CCN1CCC(CF)CC1` (centres unmarked) [Compound 16]: 0.1 to 1 µM.
Next, `CC(C)CC1c2[nH]c3ccc(Cl)cc3c2CCN1C(=O)OCCN1CCC(C(F)(F)F)C1` (centres unmarked) [Compound 17]: 0.1 to 1 µM; `CC(C)CC1c2[nH]c3ccc(Cl)cc3c2CCN1C(=O)OCCN1CCC(F)(F)C1` (centres unmarked) [Compound 18]: 0.1 to 1 µM.
Next, `CC(C)CC1c2[nH]c3ccc(Cl)cc3c2CCN1C(=O)CCN1CCSCC1` (centres unmarked) [Compound 19]: 0.1 to 1 µM; `CC(C)C[C@H]1c2[nH]c3ccc(Cl)cc3c2CCN1C(=O)CCN1CCC(C(F)(F)F)CC1` [Compound 20, (S)-1-(6-chloro-1-isobutyl-3,4-dihydro-1H-pyrido[3,4-b]indol-2(9H)-yl)-3-(4-(trifluoromethyl)piperidin-1-yl)propan-1-one]: 0.1 to 1 µM; `CC(C)CC1c2[nH]c3ccc(Cl)cc3c2CCN1C(=O)OCCN1CC(F)C1` (centres unmarked) [Compound 21]: more than 1 µM.
On to `CC(C)CC1c2[nH]c3ccc(Cl)cc3c2CCN1C(=O)OCCN1CCC(C(F)F)CC1` (centres unmarked) [Compound 22], for which the concentration for a half-maximal effect (EC50) was more than 1 µM.
For `CC(C)CC1c2[nH]c3ccc(Cl)cc3c2CCN1C(=O)OCCN1CCC(F)CC1` (centres unmarked) [Compound 23] the value was more than 1 µM; for `CC(C)CC1c2[nH]c3ccc(Cl)cc3c2CCN1C(=O)OCCN1CCC(CF)CC1` (centres unmarked) [Compound 24], more than 1 µM; for `CC(C)CC1c2[nH]c3ccc(Cl)cc3c2CCN1C(=O)C1(C#N)CC1` (centres unmarked) [Compound 25], more than 1 µM.
For `CC(C)CC1c2[nH]c3ccc(Cl)cc3c2CCN1C(=O)OCCN1CC(F)(F)C1` (centres unmarked) [Compound 26] the value was 0.1 to 1 µM; for `O=C(CCN1CCC(F)CC1)N1CCc2c([nH]c3ccc(Cl)cc23)C1CC1CCCC1` (centres unmarked) [Compound 27], 0.1 to 1 µM; for `CC(C)C[C@H]1c2[nH]c3ccc(Cl)cc3c2CCN1C(=O)CCN1CCC(F)CC1` [Compound 28, (S)-1-(6-chloro-1-isobutyl-3,4-dihydro-1H-pyrido[3,4-b]indol-2(9H)-yl)-3-(4-fluoropiperidin-1-yl)propan-1-one], 0.1 to 1 µM.
For `CC(C)C[C@H]1c2[nH]c3ccc(Cl)cc3c2CCN1C(=O)CCN1CCC(C(F)F)CC1` [Compound 29, (S)-1-(6-chloro-1-isobutyl-3,4-dihydro-1H-pyrido[3,4-b]indol-2(9H)-yl)-3-(4-(difluoromethyl)piperidin-1-yl)propan-1-one] the value was 0.1 to 1 µM.
`CC(C)(C)CC1c2[nH]c3ccc(Cl)cc3c2CCN1C(=O)CCN1CCC(F)CC1` (centres unmarked) [Compound 30]: the EC50 is more than 1 µM.
Next, `O=C(CCN1CCC(C(F)F)CC1)N1CCc2c([nH]c3ccc(Cl)cc23)C1CC1CCCC1` (centres unmarked) [Compound 31]: 0.1 to 1 µM; `CC(C)(C)CC1c2[nH]c3ccc(Cl)cc3c2CCN1C(=O)CCN1CCC(C(F)F)CC1` (centres unmarked) [Compound 32]: more than 1 µM; `CC(C)CC1c2[nH]c3ccc(Cl)cc3c2CCN1C(=O)C(C)(C)CN1CCC(F)(F)CC1` (centres unmarked) [Compound 33]: more than 1 µM.
Regarding `CC(C)C[C@H]1c2[nH]c3ccc(Cl)cc3c2CCN1C(=O)CCNC1CCC(F)(F)CC1` [Compound 34], the EC50 was more than 1 µM.
In the case of `CC(C)CC1c2[nH]c3ccc(Cl)cc3c2CCN1S(=O)(=O)CCN1CCC(F)(F)CC1` (centres unmarked) [Compound 36], the EC50 was more than 1 µM.
`CC(C)CC1c2[nH]c3ccc(Cl)cc3c2CCN1C(=O)C(C)CN1CCC(F)(F)CC1` (centres unmarked) [Compound 37]: the EC50 lay within 0.1 to 1 µM.
For `CC(C)C[C@H]1c2[nH]c3ccc(Cl)cc3c2CCN1C(=O)OCCN1CC[C@H](F)C1` [Compound 38] the value was 0.1 to 1 µM.
For `CC(C)CC1c2[nH]c3ccc(Cl)cc3c2CCN1C(=O)C1CN(CC(C)C)C1` (centres unmarked) [Compound 39] the value was more than 1 µM; for `CC(C)CC1c2[nH]c3ccc(Cl)cc3c2CCN1C(=O)CNC1CCCCC1` (centres unmarked) [Compound 40], more than 1 µM.
Next, `CC(C)CC1c2[nH]c3ccc(Cl)cc3c2CCN1C(=O)CN1CC(F)C1` (centres unmarked) [Compound 41]: 0.1 to 1 µM; `CC(C)CC1c2[nH]c3ccc(Cl)cc3c2CCN1C(=O)CC1CCCO1` (centres unmarked) [Compound 42]: 0.1 to 1 µM.
`CC(C)CC1c2[nH]c3ccc(Cl)cc3c2CCN1C(=O)CCN1CCCCC12CC2` (centres unmarked) [Compound 44]: the EC50 lay within 0.1 to 1 µM.
Next, `CC(C)CC1c2[nH]c3ccc(Br)cc3c2CCN1C(=O)CCN1CCC(F)(F)CC1` (centres unmarked) [Compound 45]: less than 0.1 µM; `CC(C)CC1c2[nH]c3ccc(Cl)cc3c2CCN1C(=O)CCC1CCN(CC(F)F)CC1` (centres unmarked) [Compound 46]: 0.1 to 1 µM; `CC(C)CC1c2[nH]c3ccc(Cl)cc3c2CCN1C(=O)CC(O)c1ccccc1` (centres unmarked) [Compound 48]: 0.1 to 1 µM.
In the case of `CC(C)CC1c2[nH]c3ccc(Cl)cc3c2CCN1C(=O)CN1CC[C@H](F)C1` (some centres unmarked) [Compound 49], the EC50 was more than 1 µM.
As to `CC(C)CC1c2[nH]c3ccc(Cl)cc3c2CCN1C(=O)C1CCN(CCC(F)(F)F)CC1` (centres unmarked) [Compound 50], the EC50 was 0.1 to 1 µM.
Next, `COc1ccc2[nH]c3c(c2c1)CCN(C(=O)CCN1CCC(F)(F)CC1)C3CC(C)C` (centres unmarked) [Compound 51]: 0.1 to 1 µM.
Next, `CC(C)CC1c2[nH]c3ccc(Cl)cc3c2CCN1C(=O)c1ccccn1` (centres unmarked) [Compound 52]: 0.1 to 1 µM; `CC(C)CC1c2[nH]c3ccc(Cl)cc3c2CCN1C(=O)COC1CCN(CC(F)F)CC1` (centres unmarked) [Compound 53]: more than 1 µM.
Next, `CC(C)C[C@H]1c2[nH]c3ccc(Cl)cc3c2CCN1C(=O)C1CN(CC(F)F)C1` [Compound 54]: 0.1 to 1 µM; `CC(C)CC1c2[nH]c3ccc(Cl)cc3c2CCN1C(=O)CN1CCOCC1` (centres unmarked) [Compound 55]: more than 1 µM.
With `CC(C)CC1c2[nH]c3ccc(Cl)cc3c2CCN1c1nc(CN2CCC(F)(F)CC2)co1` (centres unmarked) [Compound 56], the EC50 lay within 0.1 to 1 µM.
On to `CC(C)CC1c2[nH]c3ccc(Cl)cc3c2CCN1c1nc(CN2CCC(F)CC2)co1` (centres unmarked) [Compound 57], for which the EC50 was 0.1 to 1 µM.
Next, `CC(C)CC1c2[nH]c3ccc(Cl)cc3c2CCN1C(=O)CCc1ccco1` (centres unmarked) [Compound 58]: less than 0.1 µM; `CC(C)CC1c2[nH]c3ccc(Cl)cc3c2CCN1C(=O)Cc1ccccn1` (centres unmarked) [Compound 59]: more than 1 µM.
Next, `CC(C)CC1c2[nH]c3ccc(Cl)cc3c2CCN1C(=O)Cc1cccnc1` (centres unmarked) [Compound 60]: more than 1 µM.
Take `CC(C)CC1c2[nH]c3ccc(Cl)cc3c2CCN1C(=O)Cc1ccncc1` (centres unmarked) [Compound 61]: the EC50 was more than 1 µM.
Next, `CC(C)CC1c2[nH]c3ccc(Cl)cc3c2CCN1C(=O)c1ccccc1` (centres unmarked) [Compound 62]: 0.1 to 1 µM; `CC(C)CC1c2[nH]c3ccc(Cl)cc3c2CCN1C(=O)Cc1ccccc1` (centres unmarked) [Compound 63]: 0.1 to 1 µM.
For `CC(C)CC1c2[nH]c3ccc(Cl)cc3c2CCN1C(=O)c1cccnc1` (centres unmarked) [Compound 64] the value was 0.1 to 1 µM; for `CC(C)CC1c2[nH]c3ccc(Cl)cc3c2CCN1C(=O)c1ccncc1` (centres unmarked) [Compound 65], 0.1 to 1 µM.
Next, `CC(C)CC1c2[nH]c3ccc(Cl)cc3c2CCN1C(=O)c1ccco1` (centres unmarked) [Compound 66]: more than 1 µM.
As to `CC(C)CC1c2[nH]c3ccc(Cl)cc3c2CCN1C(=O)C1CCN(c2ncccn2)CC1` (centres unmarked) [Compound 67], the EC50 fell in the range of 0.1 to 1 µM.
For `CC(C)CC1c2[nH]c3ccc(Cl)cc3c2CCN1C(=O)COC1CCCCC1` (centres unmarked) [Compound 68] the value was 0.1 to 1 µM; for `CC(C)CC1c2[nH]c3ccc(Cl)cc3c2CCN1C(=O)COC1CCN(C2CC2)CC1` (centres unmarked) [Compound 69], more than 1 µM.

Values taken from patent US20130116219A1, “ANTIMICROBIAL CARBOLINE COMPOUNDS” (ALCON RESEARCH, LTD., priority 2011, published 2013).
